Experimental data: BindingDB's records for doi:10.1111/cbdd.12356 (Peking University, 2014)
pIC50: −log10 of the molar value.

target: T1, Polyunsaturated fatty acid 5-lipoxygenase (Homo sapiens, UniProt P09917); test: Cell-Free Assay
T1 sequence (P09917 whole entry): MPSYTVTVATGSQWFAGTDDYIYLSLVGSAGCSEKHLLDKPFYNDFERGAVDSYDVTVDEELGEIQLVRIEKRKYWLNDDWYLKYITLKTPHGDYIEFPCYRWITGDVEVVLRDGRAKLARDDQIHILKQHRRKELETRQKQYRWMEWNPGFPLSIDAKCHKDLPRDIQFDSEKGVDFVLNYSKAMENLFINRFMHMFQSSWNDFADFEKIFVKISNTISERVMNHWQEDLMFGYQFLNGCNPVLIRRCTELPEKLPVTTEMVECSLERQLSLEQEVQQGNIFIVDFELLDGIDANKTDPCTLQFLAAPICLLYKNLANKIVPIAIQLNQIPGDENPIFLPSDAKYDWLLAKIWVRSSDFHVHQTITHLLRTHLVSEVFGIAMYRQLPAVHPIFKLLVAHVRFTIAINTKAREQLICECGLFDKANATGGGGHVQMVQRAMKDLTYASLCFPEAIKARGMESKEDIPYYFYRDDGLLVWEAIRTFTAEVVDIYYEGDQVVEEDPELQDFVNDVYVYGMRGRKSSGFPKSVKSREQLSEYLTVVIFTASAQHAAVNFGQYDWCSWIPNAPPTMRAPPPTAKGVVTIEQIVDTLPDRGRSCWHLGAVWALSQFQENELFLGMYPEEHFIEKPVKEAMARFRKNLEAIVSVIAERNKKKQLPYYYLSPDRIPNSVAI
Procedure: The enzyme activity of 5-LOX was determined fluorescence spectrophotometrically by oxidation of the substrate H2DCFDA to the highly fluorescent 2',7'-dichlorofluorescein product during 5-LOX s catalytic reaction . The reactions were initiated by the addition of AA as substrate and then monitored by excitation at 500 nm and emission at 520 nm utilizing a multiwall fluorometer. Fluorescence signals were recorded for 5 min with a kinetics mode program. Inhibition activities were measured as described previously.

| pIC50 | Compound |
| --- | --- |
| 4.07 | O=C(c1[nH]nc2c1CSc1sc(Br)cc1-2)N1CCN(c2ccc(OC(F)(F)F)cc2)CC1 [11-bromo-5-{4-[4-(trifluoromethoxy)phenyl]piperazine-1-carbonyl}-8,10-dithia-3,4-diazatricyclo[7.3.0.0 ,⁶]dodeca-1(9),2,5,11-tetraene (7e)] |
| 5.24 | O=C(c1[nH]nc2c1CSc1sc(Br)cc1-2)N1CCN(c2ccccc2F)CC1 [11-bromo-5-[4-(2-fluorophenyl)piperazine-1-carbonyl]-8,10-dithia-3,4-diazatricyclo[7.3.0.0,6]dodeca-1(9),2,5,11-tetraene (7c)] |
| 4.68 | O=C(c1[nH]nc2c1CSc1sc(Br)cc1-2)N1CCN(Cc2ccccc2)CC1 [5-(4-benzylpiperazine-1-carbonyl)-11-bromo-8,10-dithia-3,4-diazatricyclo[7.3.0.0 ,⁶]dodeca-1(9),2,5,11-tetraene (7i)] |
